According to US20250152559A1, “METHODS FOR TREATING MYC-AMPLIFIED CANCER” (The Governing Council of the University of Toronto, priority 2023, published 2025):

Test system: SU_MB002 cells
Test: Mass spectrometry-based metabolomics and lipidomics of treated cells
Format: cell-based, human
Description: For metabolome and lipidome profiling, ˜10^6 cells and tissues were washed with PBS prior to collection and immediately flash frozen. For metabolite extraction, 1 mL of cold acetonitrile/methanol/water (2:2:1; v:v:v) was added to the cell pellets followed by 3 cycles of freezing in liquid N2 for 1 min, followed by 15 min of thawing in a sonicating ice/water bath. This was followed by incubation at −20° C. and centrifugation at 16,000×g for 15 min at 4° C. […] to fully precipitate protein. Supernatants were transferred to another tube and dried in a vacuum concentrator. For lipid extraction, cells were resuspended in 30 μL of water, followed by three cycles of freeze/thawing and sonication. To this, 225 μL of methanol was added, followed by brief vortexing and addition of 750 μL of methyl tert-butyl ether (MTBE). Samples were incubated at room temperature for 1 hr with gentle shaking. To induce phase-separation, 188 μL of water was added, samples were vortexed for 20 s and centrifuged for 5 min at 16,000×g. The upper and lower phases were collected and transferred to another tube and dried down in a vacuum concentrator. The dry metabolome and lipidome extracts were stored at −80° C. prior to analysis by liquid chromatography-mass spectrometry (LC-MS). Metabolite extracts were reconstituted in LC-MS grade water/acetonitrile (50:50; v:v), vortexed for 1 min, sonicated for 15 min, and centrifuged at 16,000×g and 4° C. for 15 min to remove insoluble debris. The lipidome extracts were reconstituted in acetonitrile/2-propanol (50:50; v:v), vortexed for 1 min, sonicated for 15 min, and centrifuged at 16,000×g and 10° C. for 15 min to remove insoluble debris.
The LC-MS metabolomics and lipidomics analyses of the 3 NSC and 3 MB cell lines and tissues were performed on a UPLC-MS system consisting of an Orbitrap IQ-X Tribrid coupled to a Horizon Vanquish UPLC system (Thermo Fisher Scientific). The lipidomics analysis was conducted in positive-ion mode with a spray voltage of 3.5 kV while the metabolomics analysis was conducted in negative-ion mode with a spray voltage of −2.5 kV. The following source conditions were identical in both analyses and were set as follows: Sheath gas flow rate, 50 arbitrary units; Aux. gas flow rate, 10 arbitrary units; Sweep gas flow rate, 1 arbitrary unit; Ion transfer tube temp., 300° C.; Vaporizer temp., 350° C. The following acquisition parameters were used for MS1 analysis in both methods: resolution, 120,000, AGC target, 4e5. The maximum IT was set at […] for the lipidomics analysis and 200 ms for the metabolomics analysis. Data-dependent MS/MS parameters for the lipidomics analyses: resolution, 30,000; AGC target, 7.5e4; maximum IT, Dynamic (54 ms); time between Master Scans, 0.6 s; isolation window, 1.0 m/z; NCE/stepped nce, 20, 30, 40; intensity threshold, 5e4; exclude isotopes, on; dynamic exclusion, 3.0 s. Data-dependent MS/MS parameters for the metabolomics analyses: resolution. 15,000; AGC target, 7.5e4; maximum IT, Dynamic (22 ms); time between Master Scans, 0.6 s; isolation window, 1.0 m/z; NCE/stepped nce, 20, 30, 40, 50; intensity threshold, 5e4; exclude isotopes, on; dynamic exclusion, 5.0 s. To increase the total number of MS/MS spectra in the lipidomics analysis, five runs with iterative MS/MS exclusions were performed using the AcquireX function in Xcalibur (Thermo Fisher Scientific). In the metabolomics analysis, three runs with iterative MS/MS exclusions were performed using the AcquireX function. For the lipidomics analysis, chromatographic separation was achieved using a Waters Acquity UPLC CSH C18 (100 mm×2.1 mm i.d.; 1.7 μm) column injecting 2 μL. […] The column was equilibrated for 2 min at 15% B. The flow rate was set to 250 μL/min. The column temperature was maintained at 65° C. For the metabolomics analysis, chromatographic separation was achieved using a SeQuant ZIC-PHILIC (150 mm×2.1 mm i.d.; 5 μm) column injecting 2 μL. […]

[1] = SU_MB002 cells treated with BAY (IC90)
[2] = SU_MB002 cells, BAY (IC90) vs vehicle

CCn1c(CO)nn(-c2cc(O[C@@H](C)C(F)(F)F)c(C(=O)Nc3c(F)cccc3Cl)cc2F)c1=O [BAY2402234]
2-Aminoadipic acid normalized peak intensity, BAY average [1]: 26487 | Argininosuccinic acid normalized peak intensity, BAY average [1]: 114194 | Asparagine normalized peak intensity, BAY average [1]: 172639.25 | Aspartic Acid normalized peak intensity, BAY average [1]: 214198 | CDP normalized peak intensity, BAY average [1]: 5476872.25 | CTP normalized peak intensity, BAY average [1]: 810207.75 | Citramalate normalized peak intensity, BAY average [1]: 4459.5 | Citrate normalized peak intensity, BAY average [1]: 76953 | Creatine phosphate normalized peak intensity, BAY average [1]: 619707.25 | Cystathionine normalized peak intensity, BAY average [1]: 3636 | Dihydroorotic Acid normalized peak intensity, BAY average [1]: 462202 | Gluconic acid normalized peak intensity, BAY average [1]: 1081576.5 | Glutamate normalized peak intensity, BAY average [1]: 26227101.8 | Glyceraldehyde-3-phosphate normalized peak intensity, BAY average [1]: 78313.3333 | Hydroxyglutaric acid normalized peak intensity, BAY average [1]: 37974496.3 | Inositol normalized peak intensity, BAY average [1]: 40859409.5 | N-Acetyl glucosamine monophosphate normalized peak intensity, BAY average [1]: 8697678.5 | N-Acetylglutamic Acid normalized peak intensity, BAY average [1]: 189382 | N-Carbamoyl Aspartic Acid normalized peak intensity, BAY average [1]: 31547.3333 | PE O-32:1 normalized peak intensity, BAY average [1]: 2472183.74 | PE O-32:2 normalized peak intensity, BAY average [1]: 11446617.4 | PE O-34:1 normalized peak intensity, BAY average [1]: 3839410.03 | PE O-34:2 normalized peak intensity, BAY average [1]: 92503648 | PE O-36:1 normalized peak intensity, BAY average [1]: 531398.036 | PE O-36:2 normalized peak intensity, BAY average [1]: 102597837 | PE O-36:4 normalized peak intensity, BAY average [1]: 258977958 | PE O-38:4 normalized peak intensity, BAY average [1]: 210123122 | PE O-40:2 normalized peak intensity, BAY average [1]: 10612336 | PE O-40:4 normalized peak intensity, BAY average [1]: 226507622 | PE O-42:3 normalized peak intensity, BAY average [1]: 911901.571 | PE O-42:4 normalized peak intensity, BAY average [1]: 13670542.5 | PE O-42:5 normalized peak intensity, BAY average [1]: 14681375.2 | Proline normalized peak intensity, BAY average [1]: 129729612 | Saccharopine normalized peak intensity, BAY average [1]: 11126.3333 | Sarcosine normalized peak intensity, BAY average [1]: 178498.5 | TG(42:0) normalized peak intensity, BAY average [1]: 15967351.9 | TG(44:0) normalized peak intensity, BAY average [1]: 64916660.2 | TG(44:1) normalized peak intensity, BAY average [1]: 72494555.5 | TG(44:2) normalized peak intensity, BAY average [1]: 23582680.7 | TG(46:3) normalized peak intensity, BAY average [1]: 35191113.7 | TG(48:0) normalized peak intensity, BAY average [1]: 234715455 | TG(48:1) normalized peak intensity, BAY average [1]: 2421262.9 | TG(48:3) normalized peak intensity, BAY average [1]: 16895583.2 | TG(48:4) normalized peak intensity, BAY average [1]: 33300539.1 | TG(48:5) normalized peak intensity, BAY average [1]: 2707280.56 | TG(50:0) normalized peak intensity, BAY average [1]: 235218307 | TG(50:2) normalized peak intensity, BAY average [1]: 1182402177 | TG(50:3) normalized peak intensity, BAY average [1]: 595402718 | TG(52:1) normalized peak intensity, BAY average [1]: 649526618 | TG(52:5) normalized peak intensity, BAY average [1]: 9440406.47 | TG(54:1) normalized peak intensity, BAY average [1]: 104051454 | TG(54:6) normalized peak intensity, BAY average [1]: 36773026.8 | TG(56:7) normalized peak intensity, BAY average [1]: 13481295.5 | UDP normalized peak intensity, BAY average [1]: 964954.5 | UDP-Glucose normalized peak intensity, BAY average [1]: 609888.333 | UTP normalized peak intensity, BAY average [1]: 215065 | Uridine normalized peak intensity, BAY average [1]: 26154.5 | Xanthosine normalized peak intensity, BAY average [1]: 617698.75 | alpha-Ketoglutaric acid normalized peak intensity, BAY average [1]: 112368 | dCTP normalized peak intensity, BAY average [1]: 109835 | dTDP normalized peak intensity, BAY average [1]: 13149248 | 2-Aminoadipic acid Log2 Fold Change: (BAY)/(DMSO) [2]: −1.831 | Argininosuccinic acid Log2 Fold Change: (BAY)/(DMSO) [2]: 0.9374 | Asparagine Log2 Fold Change: (BAY)/(DMSO) [2]: −2.552 | Aspartic Acid Log2 Fold Change: (BAY)/(DMSO) [2]: 0.6679 | CDP Log2 Fold Change: (BAY)/(DMSO) [2]: −1.056 | CTP Log2 Fold Change: (BAY)/(DMSO) [2]: −1.688 | Citramalate Log2 Fold Change: (BAY)/(DMSO) [2]: −1.15 | Citrate Log2 Fold Change: (BAY)/(DMSO) [2]: −2.924 | Creatine phosphate Log2 Fold Change: (BAY)/(DMSO) [2]: −0.8039 | Cystathionine Log2 Fold Change: (BAY)/(DMSO) [2]: −1.709 | Dihydroorotic Acid Log2 Fold Change: (BAY)/(DMSO) [2]: −2.147 | Gluconic acid Log2 Fold Change: (BAY)/(DMSO) [2]: 2.808 | Glutamate Log2 Fold Change: (BAY)/(DMSO) [2]: 0.5525 | Glyceraldehyde-3-phosphate Log2 Fold Change: (BAY)/(DMSO) [2]: −1.224 | Hydroxyglutaric acid Log2 Fold Change: (BAY)/(DMSO) [2]: 7.211 | Inositol Log2 Fold Change: (BAY)/(DMSO) [2]: −0.7576 | N-Acetyl glucosamine monophosphate Log2 Fold Change: (BAY)/(DMSO) [2]: −0.5317 | N-Acetylglutamic Acid Log2 Fold Change: (BAY)/(DMSO) [2]: 1.218 | N-Carbamoyl Aspartic Acid Log2 Fold Change: (BAY)/(DMSO) [2]: −2.853 | PE O-32:1 Log2 Fold Change: (BAY)/(DMSO) [2]: 1.371 | PE O-32:2 Log2 Fold Change: (BAY)/(DMSO) [2]: 1.59 | PE O-34:1 Log2 Fold Change: (BAY)/(DMSO) [2]: 0.7945 | PE O-34:2 Log2 Fold Change: (BAY)/(DMSO) [2]: 1.319 | PE O-36:1 Log2 Fold Change: (BAY)/(DMSO) [2]: 0.9815 | PE O-36:2 Log2 Fold Change: (BAY)/(DMSO) [2]: 0.7435 | PE O-36:4 Log2 Fold Change: (BAY)/(DMSO) [2]: 0.9655 | PE O-38:4 Log2 Fold Change: (BAY)/(DMSO) [2]: 0.6388 | PE O-40:2 Log2 Fold Change: (BAY)/(DMSO) [2]: 0.4723 | PE O-40:4 Log2 Fold Change: (BAY)/(DMSO) [2]: 0.2968 | PE O-42:3 Log2 Fold Change: (BAY)/(DMSO) [2]: 0.5216 | PE O-42:4 Log2 Fold Change: (BAY)/(DMSO) [2]: 0.6964 | PE O-42:5 Log2 Fold Change: (BAY)/(DMSO) [2]: 0.2828 | Proline Log2 Fold Change: (BAY)/(DMSO) [2]: 11.27 | Saccharopine Log2 Fold Change: (BAY)/(DMSO) [2]: −1.712 | Sarcosine Log2 Fold Change: (BAY)/(DMSO) [2]: −0.4764 | TG(42:0) Log2 Fold Change: (BAY)/(DMSO) [2]: 2.859 | TG(44:0) Log2 Fold Change: (BAY)/(DMSO) [2]: 2.947 | TG(44:1) Log2 Fold Change: (BAY)/(DMSO) [2]: 3.568 | TG(44:2) Log2 Fold Change: (BAY)/(DMSO) [2]: 4.285 | TG(46:3) Log2 Fold Change: (BAY)/(DMSO) [2]: 4.265 | TG(48:0) Log2 Fold Change: (BAY)/(DMSO) [2]: 1.816 | TG(48:1) Log2 Fold Change: (BAY)/(DMSO) [2]: 2.541 | TG(48:3) Log2 Fold Change: (BAY)/(DMSO) [2]: 3.131 | TG(48:4) Log2 Fold Change: (BAY)/(DMSO) [2]: 3.96 | TG(48:5) Log2 Fold Change: (BAY)/(DMSO) [2]: 5.389 | TG(50:0) Log2 Fold Change: (BAY)/(DMSO) [2]: 1.574 | TG(50:2) Log2 Fold Change: (BAY)/(DMSO) [2]: 1.881 | TG(50:3) Log2 Fold Change: (BAY)/(DMSO) [2]: 2.346 | TG(52:1) Log2 Fold Change: (BAY)/(DMSO) [2]: 1.065 | TG(52:5) Log2 Fold Change: (BAY)/(DMSO) [2]: 2.418 | TG(54:1) Log2 Fold Change: (BAY)/(DMSO) [2]: 0.738 | TG(54:6) Log2 Fold Change: (BAY)/(DMSO) [2]: 1.79 | TG(56:7) Log2 Fold Change: (BAY)/(DMSO) [2]: 1.418 | UDP Log2 Fold Change: (BAY)/(DMSO) [2]: −3.019 | UDP-Glucose Log2 Fold Change: (BAY)/(DMSO) [2]: −2.77 | UTP Log2 Fold Change: (BAY)/(DMSO) [2]: −3.375 | Uridine Log2 Fold Change: (BAY)/(DMSO) [2]: −4.037 | Xanthosine Log2 Fold Change: (BAY)/(DMSO) [2]: 3.486 | alpha-Ketoglutaric acid Log2 Fold Change: (BAY)/(DMSO) [2]: −1.687 | dCTP Log2 Fold Change: (BAY)/(DMSO) [2]: 2.27 | dTDP Log2 Fold Change: (BAY)/(DMSO) [2]: 1.896
